Holding throughout (assay): Test B pre-/postemergence plant response
What all share (format): in vivo
Holding throughout (settings): 1000 g ai/ha, 0 to 100 scale (0 no effect, 100 complete control)

Assay [1] deals with morningglory (Ipomoea spp.). The source says: (§1) Seeds of plant species selected from bamyardgrass (Echinochloa crus-galli), kochia (Kochia scoparia), ragweed (common ragweed, Ambrosia elatior), Italian ryegrass (Lolium multiflorum), large (Lg) crabgrass (Digitaria sanguinalis), giant foxtail (Setaria faberii), momingglory (Ipomoea spp.), pigweed (Amaranthus retroflexus), velvetleaf (Abutilon theophrasti), wheat (Triticum aestivum), and corn (Zea mays) were planted into a blend of loam soil and sand and treated preemergence with a directed soil spray using test chemicals formulated in a non-phytotoxic solvent mixture which included a surfactant. At the same time, plants selected from these crop and weed species and also blackgrass (Alopecurus myosuroides), and galium (catchweed bedstraw, Galium aparine) were planted in pots containing the same blend of loam soil and sand and treated with postemergence applications of test chemicals formulated in the same manner. Plants ranged in height from 2 to 10 cm and were in the one- to two-leaf stage for the postemergence treatment. Treated plants and untreated controls were maintained in a greenhouse for approximately 10 days, after which time all treated plants were compared to untreated controls and visually evaluated for injury. Plant response ratings, summarized in Table B, are based on a 0 to 100 scale where 0 is no effect and 100 is complete control. A dash (-) response means no test result.

Assay [2] has as its system barnyardgrass (Echinochloa crus-galli).
From the text: as §1

Assay [3] has as its system velvetleaf (Abutilon theophrasti).
From the text: as §1

Assay [4] relates to pigweed (Amaranthus retroflexus).
From the text: as §1

Assay [5] deals with large (Lg) crabgrass (Digitaria sanguinalis).
From the text: as §1

Assay [6] relates to wheat (Triticum aestivum).
From the text: as §1

The subject of assay [7] is giant foxtail (Setaria faberii).
From the text: as §1

In a further assay the test system is corn (Zea mays).
From the text: as §1

Here are results for two compounds from patent US10131652B2, “Pyrimidinyloxy benzene derivatives as herbicides” (E. I. DU PONT DE NEMOURS AND COMPANY, priority 2014, dated 2018).

As to `Clc1cnc(Oc2ccccc2-c2nnco2)nc1` [Compound 6], the “Plant response rating, Morningglory” value in assay [1] (Postemergence) worked out at 20; in assay [1] (Preemergence) it was 0. Besides, the “Plant response rating, Barnyardgrass” value in assay [2] (Postemergence) and in assay [2] (Preemergence) was 0 each time. Further, the results for the “Plant response rating, Velvetleaf” value in assay [3] (Postemergence) and in assay [3] (Preemergence) were 30 and 20, respectively. In addition, the “Plant response rating, Pigweed” value in assay [4] (Postemergence) and in assay [4] (Preemergence) was 70 throughout. The figures for the “Plant response rating, Crabgrass, Large” value in assay [5] (Postemergence) and in assay [5] (Preemergence) were 20 and 0, respectively. For the same compound, the “Plant response rating, Wheat” value in assay [6] (Postemergence) and in assay [6] (Preemergence) was 0 each time. In addition, the “Plant response rating, Foxtail, Giant” value in assay [7] (Postemergence) and in assay [7] (Preemergence) was 0 throughout. Further, the “Plant response rating, Corn” value in the assay with corn (Zea mays) (Postemergence) and with corn (Zea mays) (Preemergence) was 0 in each case.
With `Clc1cnc(Oc2ccccc2-c2cscn2)nc1` [Compound 8], the “Plant response rating, Morningglory” value worked out at 10 in assay [1] (Postemergence) and 0 in assay [1] (Preemergence). The “Plant response rating, Barnyardgrass” value came out at 0 in assay [2] (Postemergence) and 30 in assay [2] (Preemergence). For the same compound, the “Plant response rating, Velvetleaf” value in assay [3] (Postemergence) and in assay [3] (Preemergence) was 30 throughout. The “Plant response rating, Pigweed” value in assay [4] (Postemergence) came out at 70; in assay [4] (Preemergence) it was 100. For the same compound, the “Plant response rating, Crabgrass, Large” value in assay [5] (Postemergence) is given as 10; in assay [5] (Preemergence), 80. In addition, the “Plant response rating, Wheat” value in assay [6] (Postemergence) and in assay [6] (Preemergence) was 0 each time. In addition, the entries for the “Plant response rating, Foxtail, Giant” value in assay [7] (Postemergence) and in assay [7] (Preemergence) were 0 and 60, respectively. Moreover, the “Plant response rating, Corn” value in the assay with corn (Zea mays) (Postemergence) and in the assay on corn (Zea mays) (Preemergence) was 0 in each case.
